These results are taken from publication PMC8901179 (Journal of medicinal chemistry, 2019).

Assay [1] concerns Bmal1-dLuc U2OS cells. Nature of the assay: Cell-based circadian assay. To be noted: for fold more potent than longdaysin (period lengthening): relative to longdaysin.
Assay [2] concerns mouse behavioral rhythms. To be noted: cited from earlier work.
Assay [3] relates to 374 kinases. The experiment in a line: Profiling toward 374 kinases. The class given is biochemical. To be noted: 5 μM compound.
Assay [4] concerns mouse behavioral rhythms. The experiment in a line: Circadian behavior measurement, infusion into the lateral ventricle. To be noted: 1 mM infusion, constant darkness. The class given is in vivo, mice.
The subject of assay [5] is Bmal1-dLuc U2OS cells. To be noted: cited from earlier work.

Consider `CC(C)n1cnc2c(NCc3cccc(C(F)(F)F)c3)nc(NCCN(C)C)nc21` [6a, N2-(2-(Dimethylamino)ethyl)-9-isopropyl-N6-(3-(trifluoromethyl)benzyl)-9H-purine-2,6-diamine], for which, in assay [1], the “fold more potent than longdaysin (period lengthening)” value (“fold more potent than longdaysin” for short) is ~ 3 fold.

`CC(C1CC1)n1cnc2c(NCc3cccc(C(F)(F)F)c3)ncnc21` (stereo not shown) [7a]: the “fold more potent than longdaysin” value in assay [1] is on record as ~ 3 fold.

As to `CC(C1CC1)n1cnc2c(N(C)Cc3cccc(C(F)(F)F)c3)nc(NCCN(C)C)nc21` (stereo not shown) [7c, 9-(1-Cyclopropylethyl)-N2-(2-(dimethylamino)ethyl)-N6-methyl-N6-(3-(trifluoromethyl)benzyl)-9H-purine-2,6-diamine], the “period lengthening activity (in words)” value in assay [1] is “dramatic decrease in the period lengthening activity”.

With `CC(C1CC1)n1cnc2c(OCc3cccc(C(F)(F)F)c3)nc(NCCN(C)C)nc21` (stereo not shown) [7d, N1-(9-(1-Cyclopropylethyl)-6-((3-(trifluoromethyl)benzyl)oxy)-9H-purin-2-yl)-N2,N2-dimethylethane-1,2-diamine], the “period lengthening activity (in words)” value in assay [1] is “dramatic decrease in the period lengthening activity”.

Consider `Nc1nccc(-c2c(-c3ccc(F)cc3)ncn2C2CCCCC2)n1` [PF-670462], for which, in assay [2], the “period change in vivo (in words)” value is recorded as “only small period change in vivo”.

For the molecule `CC(C1CC1)n1cnc2c(NCc3cccc(C(F)(F)F)c3)nc(NCCN(C)C)nc21` (stereo not shown) [7b, 9-(1-Cyclopropylethyl)-N2-(2-(dimethylamino)ethyl)-N6-(3-(trifluoromethyl)benzyl)-9H-purine-2,6-diamine], the “fold more potent than longdaysin” value in assay [1] is ~ 10 fold. Moreover, in assay [3], the “number of kinases among 374 kinases inhibited by more than 50%” value came out at 9.

Turning to `CC(C)n1cnc2c(NCc3cccc(C(F)(F)F)c3)nc(N3CCC(O)CC3)nc21` [6d, 1-(9-Isopropyl-6-((3-(trifluoromethyl)benzyl)amino)-9H-purin-2-yl)piperidin-4-ol], in assay [1], the “period lengthening activity (in words)” value is recorded as “decreased activity”.

On to `CC(C)n1cnc2c(NCc3cccc(C(F)(F)F)c3)nc(NCCN3CCOCC3)nc21` [6f, 9-Isopropyl-N2-(2-morpholinoethyl)-N6-(3-(trifluoromethyl)-benzyl)-9H-purine-2,6-diamine], for which the “period lengthening activity (in words)” value in assay [1] is recorded as “decreased activity”.

Take `CC(C)n1cnc2c(NCc3cccc(C(F)(F)F)c3)ncnc21` [longdaysin]: in assay [1] (relative to benipurine), the “fold more potent than benipurine (1 h period lengthening)” value came out at 3 fold. Also, in assay [4], the “period lengthening of circadian behavior” value was “about 0.05 h”. Besides, the “compound concentration for 1 h period lengthening” value in assay [5] is 0.3 µM.

For the molecule `CC(C)n1cnc2c(NCc3cccc(C(F)(F)F)c3)nc(NCCN)nc21` [6k, N2-(2-Aminoethyl)-9-isopropyl-N6-(3-(trifluoromethyl)benzyl)-9H-purine-2,6-diamine], the “period lengthening activity (in words)” value in assay [1] is “much less activity compared to 6a”.
